The results in this text go back to patent publication US11452737B2, “Compositions and methods for treating vascular malformation and related conditions” (priority 2015, dated 2022).

Each structure is given as a SMILES string. Values after ≈ are worked out from the molar mass of the structure shown. Read-outs that look alike come from different tables or passages of the source.

The subject of one assay is untransformed HMECs. The assay is described as follows: Puromycin dose response curve in untransformed HMECs. As to conditions: 1 ug/ml puromycin, after 48 hours. Type of assay: cell-based, human.
Assay [1] relates to HEK293T cells with pcDNA3.1-E, -GNAQ, -R183Q or -Q209L plasmids. The assay is described as follows: RT-PCR gene expression with or without puromycin treatment. Type of assay: cell-based, human. The method, then:
A panel of genes, important to the regulation of the pathways downstream of GNAQ, were evaluated by RT-PCR in mRNA samples gathered from cells with the pcDNA3.1-E, pcDNA3.1-GNAQ, pcDNA3.1-R183Q or pcDNA3.1-Q209L plasmids with or without puromycin treatment of 0.04 ug/ul (FIGS. 6A-6F, n=3 per group from 3 separate experiments).
HEK293T cells (5×10^5 cells/well) were transfected with 1 μg plasmid (pcDNA3.1-GNAQ, pcDAN3.1-R183Q or pcDNA3.1-Q209L) in 6-well plates. Twenty-four (24) hours later, cells were digested and re-plated into 6-well plates. Twenty-four (24) hours later, the plates were incubated in DMEM (10% FBS) with or without 0.04 μg/ml puromycin. Three days later, total RNA of treated HEK293T cells were isolated by using RNEASY® Mini Kit (QIAGEN) as follows. Media was aspirated, and the cells washed twice with PBS. 350 μl Buffer RLT with B-Mercaptoethanol was added to the each well. The lysate was pipetted into a microcentrifuge tube and pipetted to mix. 1 volume of 70% ethanol was added to the lysate. Lysate was transferred to an RNEASY® spin column placed in a 2 ml collection tube (supplied) and centrifuged. RNEASY® spin column was washed as per kit instructions. 50 μl RNase-free water was added directly to the center of the spin column membrane which was centrifuged for 1 min at 12,000 rpm to elute the RNA. Three separate experiments were performed to obtain triplicate mRNA and protein samples for analysis.
Reverse Transcription was carried out with the using the High Capacity cDNA Reverse Transcription Kits and based on Applied Biosystems' protocol. 2×RT master mix is prepared using the kit components before preparing the reaction plate and kit components allowed to thaw on ice. Referring to one reaction amount of components, the volume of components needed to prepare the required number of reactions was calculated. Then 10 μl of 2×RT master mixes was pipetted into each well of 500 μl PCR clean tubes. 10 μL of RNA sample (1 μg) was pipetted into each tube which is then mixed, centrifuged and then placed in a thermal cycler with the program of (10 min at 25° C., 120 min at 37° C., 5 min at 85° C., then 4° C.). After the thermal cycler, 1 μl RNase H was added into the tubes and incubated at 37° C. for 20 min. Finally, 600 μl Nuclease-free H2O was added into each tube.
The primers for Real-Time PCR were designed online with Primer-BLAST software tool. For each gene, at least three primers at different locations were designed based on the cDNA of the genes. The primer concentrations were normalized and were adjusted to 5 pmol/μ1. The real-time PCR reaction mixture of 20 μl included 10 μl SYBR Green Mix (2×), 2 μl primer pair mix, and 8 μl diluted cDNA solution. The Real-time PCR of loaded samples were run on CFX Connect™ real-time PCR system (Bio-rad) with extension steps of (50° C. 2 min 1 cycle, 95° C. 10 min 1 cycle, 95° C. 15 sec then 60° C. 1 min 40 cycles, 72° C. 10 min, 1 cycle) followed by a melting curve analysis (from 55° C. to 95° C. increments 0.05° C./Sec) to guarantee absence of nonspecific amplification. The primers with a unique peak in melting curve were chosen for next step. The primers were also only used for next experiments after they were confirmed by obtaining the same results from other primers for the same gene. With the final confirmed primers, the RNA levels in triplicate samples, obtained from three separate experiments, were measured.

For assay [2], the system named is HEK293T cells transiently transfected with empty, wildtype, R183Q, or Q209L constructs. The assay is described as follows: MTT assay dose response curve for puromycin, 24 well plate, transiently transfected cells. Type of assay: cell-based. As to conditions: Homo sapiens, HEK-293T, 72 h, puromycin 3 days, read-out: Half maximal inhibitory concentration (IC50), cell number. How it is done: FIG. 1 is a plot showing response of cells as a function of puromycin concentration. HEK293T cells were transiently transfected with empty, wildtype, R183Q, or Q209L constructs and then exposed to puromycin for 3 days before cell number was assessed by MTT assay in 24 well plate.
To determine whether mutations in GNAQ conferred increased sensitivity to puromycin, an MTT (3-(4,5-dimethylthiazol-2-yl)-2,5-diphenyltetrazolium bromide) assay dose response curve was done with HEK239 cells (including standard curve and normalization) after transient transfection. Puromycin exposure in HEK293 cells transiently transfected with R183Q or Q209L (no puromycin selection) over greater than a 100 fold dose range was then tested.
HEK 293 cells (5×10^5 cells/well) in 6 well-plates were transient transfected with 1 μg of construct (pcDNA3.1-GNAQ, pcDAN3.1-R183Q and pcDNA3.1-Q209L) per well. Twenty-four (24) hours later, the cells were digested, counted and aliquoted into 24 well plates (0.8×10^5 cells/well). After another 24 hours, the transfected cells were incubated with various concentrations of puromycin.
Three days later, the relative cell numbers were detected using MTT assay reagents (CellTiter 96® Aqueous One Solution Cell Proliferation Assay Reagents) as follows. After being thawed at room temperature, 40 μl the CellTiter 96® Aqueous One Solution Reagent was pipetted into each well of the 24-well assay plate containing the samples in 200 μl of culture medium. Then, the plates were incubated at 37° C. for 2 hours in a humidified, 5% CO2 atmosphere. The supernatants were transferred into 96-well plates. The absorbance at 490 nm of each sample was read by using a plate reader (SpectraMax M5). Optical density directly correlated with viable cell quantity.
A software program (GraphPad Prism) was used to generate Dose Response Curves. A non-linear regression was done to graph the Log [puromycin molar concentration] versus Maximal Inhibitory Response. The GraphPad program was used to calculate the IC50 of puromycin for each cell line (dose that gives a 50% maximal response) and the 95% confidence intervals. A 2-way ANOVA (Dose by Construct) was done to determine if there is a significant effect of construct upon puromycin effect with p-value of <0.05 used to determine significance.

Assay [3] relates to HEK293T cells transiently transfected with pcDNA3.1-E, pcDNA3.1-GNAQ, pcDNA3.1-R183Q, pcDNA3.1-Q209L. In words: Puromycin dose response curve, CellTiter 96 cell proliferation assay, 96-well plates. Format: cell-based. As to conditions: Homo sapiens, HEK-293T, 72 h, 3 days, read-out: half maximal inhibitory concentration (IC50). The method, then:
FIG. 5 is a plot showing a dose response curve for puromycin. HEK 293T cells (5×10^5 cells/well in six-well plate) were transiently transfected with pcDNA3.1-E, pcDNA3.1-GNAQ, pcDNA3.1-R183Q, pcDNA3.1-Q209L. Twenty-four (24) hours later, the cells were digested, counted and aliquoted into 96-well plates. Twenty-four (24) hours later, the cells were incubated with a series of puromycin concentrations. Three days later, the relative cell numbers were detected using a cell proliferation assay.
A dose response curve (cell number in response to puromycin concentration) for HEK293T cells transiently transfected pcDNA3.1-E, pcDNA3.1-GNAQ, pcDNA3.1-R183Q and pcDNA3.1-Q209L and treated with puromycin is shown in FIG. 5. Cells expressing either the pcDNA3.1-R183Q or pcDNA3.1-Q209L plasmids were more sensitive to puromycin compared with cells transfected with the pcDNA3.1-E or pcDNA3.1-GNAQ plasmids.
HEK293T cells (5×10^5 cells/well) in 6 well-plates were transiently transfected with 1 μg (pcDNA3.1-E, pcDNA3.1-GNAQ, pcDAN3.1-R183Q and pcDNA3.1-Q209L) per well using FUGENE 6®. Twenty-four (24) hours later, the cells were digested, counted and aliquoted into 96-well plates (1×10^4 cells/well). After another 24 hours, the transfected cells were incubated with a 100-fold concentration series of puromycin. Three days later, the relative cell numbers were detected using CELLTITER 96® Aqueous One Solution Cell Proliferation Assay Reagents (Promega #G3582) as follows: After being thawed at room temperature, 10 μl of CELLTITER 96® Aqueous One Solution Reagent was pipet into each well of the 96-well assay plate containing the samples in 100 μl of culture medium. Then, the plates were incubated at 37° C. for 2 hours in a humidified, 5% CO2 atmosphere. The absorbance at 490 nm of each sample was read by using SpectraMAX M5. Readings were normalized to that in pcDNA3.1-GNAQ cells receiving vehicle. Results were analyzed in GraphPad. Experiment was done in quadruplicate samples.

Assay [4] concerns HEK293T cells with GNAQ constructs. The assay is described as follows: Western blot of protein levels after puromycin treatment. Type of assay: cell-based, human. How it is done:
Treated cells were harvested with ice-cold radioimmunoprecipitation assay (RIPA) buffer (150 mM NaCl, 1.0% IGEPAL® CA-630, 0.5% sodium deoxycholate, 0.1% SDS, and 50 mM Tris, pH 8.0) (Sigma-Aldrich) plus phosphatase inhibitor cocktail (Cell signaling technology, #5870) and analyzed by western blot as follows: Quantitative protein samples were denatured in 4×LDS Sample buffer (Invitrogen) at 100° C. for 6 minutes. Samples were then subjected to SDS-PAGE by using Bio-Rad 4-15% gradient gels and transferred to PVDF membrane. The membranes were blocked with Li-cor ODYSSEY® Blocking buffer for 30 minutes at room temperature. Then the membranes were incubated with primary antibody (GaQ 1:125, Santa Cruz Biotechnology, sc-393; p-ERK 1:1000, Cell Signaling Technology, 4370; ERK 1:1000, Cell signaling Technology, 4696; HSP90 1:1000, Cell Signaling Technology, 4877) in a 1:1 solution of Li-cor ODYSSEY® blocking buffer and Tris-Buffered Saline and 0.1% Tween 20 (TBST) overnight at 4° C. The membranes were then washed three times for 10 min each in Tris-Buffered Saline and 0.1% Tween 20 (TBST) then probed with goat anti-mouse (IR-Dye 680RD) or goat anti Rabbit (IR-Dye-800CW) labeled secondary antibody in 1:1 Li-cor ODYSSEY® blocking buffer to TBST for 1 hour at room temperature. […] Bands were quantified using Image J software program.
On the technique in general: A western blot detects proteins with antibodies after separation by electrophoresis.

Where [5] appears, read: all three constructs, puromycin alone, significant.

In the case of `COc1ccc(C[C@H](N)C(=O)N[C@H]2[C@@H](O)[C@H](n3cnc4c(N(C)C)ncnc43)O[C@@H]2CO)cc1` [puromycin], the cells killed in the assay with untransformed HMECs is reported as 100%. Moreover, the “ID3 mRNA levels” value was “upregulated” in assay [1] (R183Q and Q209L mutant cells, puromycin, compared to wildtype puromycin treated and vehicle treated mutant cells); “up-regulated” in assay [1] (wildtype cells, puromycin 0.04 ug/ml, compared to vehicle treated). Further, the “TRIO mRNA levels” value in assay [1] (all three constructs, puromycin alone, not significant) is “up-regulated”. Further, in assay [1] (setting [5]), the “PRKCQ mRNA levels” value is reported as “up-regulated”. For the same molecule, in assay [1] (setting [5]), the “TEAD3 mRNA levels” value was “up-regulated”. In addition, in assay [1] (all three constructs, puromycin alone, significant only in Q209L cells), the “PIK3C2B mRNA levels” value is “up-regulated”. For the same molecule, in assay [1] (cells expressing R183Q or Q209L plasmids, puromycin 0.04 ug/ml), the “TSC22D3 mRNA levels” value is “further decreased”. Besides, the “TSC22D3 mRNA expression” value in assay [1] (wildtype cells, puromycin 0.04 ug/ml, compared to vehicle treated wildtype) was “decreased”. Besides, the IC50 in assay [2] (Q209L construct) is 190 nM; in assay [2] (R183Q construct) it was 190 nM; in assay [2] (empty construct), 290 nM; in assay [2] (wildtype GNAQ construct), 290 nM; in assay [3] (HEK293T with pcDNA3.1-E (empty)) it was 0.084 µg/mL (≈ 0.178 µM); in assay [3] (HEK293T with pcDNA3.1-GNAQ (wildtype)), 0.091 µg/mL (≈ 0.193 µM). Further, the figures for the IC50 in assay [3] (HEK293T with pcDNA3.1-Q209L) and in assay [3] (HEK293T with pcDNA3.1-R183Q) were 0.051 µg/mL (≈ 0.108 µM) and 0.064 µg/mL (≈ 0.136 µM), respectively. Also, in assay [4] (puromycin treatment, pcDNA3.1-GNAQ, pcDNA3.1-R183Q or pcDNA3.1-Q209L cells), the ID3 protein levels result is given as “further increased”. For the same molecule, in assay [4] (puromycin versus vehicle treated cells), the Gαq protein levels result is recorded as “No significant differences”.
